From patent publication US20090291905A1, “FUNGAL PHYTOTOXIN FUSICOCCIN FOR THE TREATMENT AND DIAGNOSIS OF COAGULATION-CORRELATED PATHOLOGIES” (priority 2008, published 2009)
Square brackets hold non-standard residues; d marks the D form. Primed or numbered codes have the meaning given here. Ends that are not written are not given here. * marks the point of attachment. Myristoyl = CCCCCCCCCCCCCC(=O)*; pS′ = not defined here

Key:
[1] = target: T1, 14-3-3 proteins / bD15Lp peptide (last 15 amino acid residues of GPIbα) (UniProt P07359+P49106); assay: Binding of 32P-labelled 14-3-3 (GF14-6) to resin-bound bD15Lp phosphopeptide; settings: 10 μM FC; resin-bound radioactivity; no binding in the absence of FC
T1 construct: GST (pGEX-2TK, with protein kinase A site at the junction, 32P-labelled) (N); made in house; host or cells: E. coli (14-3-3); peptide synthesized by Neosystem
Method: (§1) Peptides were immobilized onto streptavidin-agarose resin and incubated with ^32P-labelled 14-3-3 in the absence or in the presence of 10 μM FC. After washing, radioactivity associated with the resin was measured. Data are the mean of three independent experiments.
(§2) 0.5 nmol of biotinylated peptides were immobilized onto 40 μl of streptavidin-agarose resin (Sigma-Aldrich) and incubated in 50 μl of buffer H with 3 μg of ^32P-labelled GF14-6 (1.4 kBq/μg) for 60 min at room temperature in the absence or in the presence of 10 μM FC. Resin was then centrifuged at 2000×g for 5 min and washed three times with 1 ml of buffer H. Resin-bound radioactivity was measured in a liquid scintillation β-counter Packard Tri Carb 2100TR (Canberra, Australia).
(§3) A phosphorylated biotinyl-peptide (bD15Lp), reproducing the last 15 amino acid residues of GPIbα, and containing the 14-3-3 binding sequence, was used in interaction studies with 14-3-3 proteins to verify the ability of FC to stimulate the interaction. The unphosphorylated corresponding peptide ([…]) and peptides reproducing the last 15 amino acids of the H^+-ATPase in unphosphorylated (bL15V) and phosphorylated form (bL15Vp) were used as control.
(§4) The peptides were immobilized onto a streptavidin-agarose resin and incubated with ^32P-labelled 14-3-3 proteins.

isolated human platelets = assay: Binding of [3H]FC to isolated human platelets; settings: 10 nM [3H]FC, displaced by 10 μM unlabelled FC; 1 h at 37° C.
Method: 30 μl of platelet suspension (2.0×10^8/ml) were incubated for 1 h at 37° C. with 5×10^5 dpm [^3H]FC in 100 μl PBS containing 5 mM MgCl2. Where indicated, 10 μM cold FC was added (+FC). Platelets were then sedimented by centrifugation and radioactivity measured by scintillation counting.
30 μl of platelet suspension (2.0×10^8/ml) were incubated for 1 h at 37° C. with 5×10^5 dpm [^3H]FC in 100 μl PBS containing 5 mM MgCl2. To calculate specific binding, control sample was incubated with 10 μM FC. Platelets were centrifuged at 2000 g for 4 min in a refrigerated microcentrifuge and extensively washed in PBS containing 5 mM MgCl2. 500 μl perchloric acid was then added and radioactivity was measured in a liquid scintillation β-counter.
In order to verify whether a FC binding activity is present in purified human platelets, a [^3H]FC analogue (Ballio et al., 1980) was utilised. 30 μl platelet suspension in PBS (2.0×10^8/ml) were incubated with 10 nM [^3H]FC, and after several washings, the platelet-associated radioactivity was measured. The specific [^3H]FC binding was evaluated by adding a saturating concentration of unlabelled FC.

[2] = system: platelet adhesion to immobilized vWF; assay: Platelet adhesion to immobilized vWF; assay type: cell-based, human; settings: platelets pre-incubated with FC
Method: 90 μl platelet suspension was incubated with purified vWF immobilized onto polystyrene wells. After washings, adherent platelets were determined measuring the endogenous acid phosphatase activity. +FC, platelets previously treated with 40 μM FC; +ADP, incubation in the presence of 50 μM ADP.
Platelet adhesion to immobilized vWF was performed in polystyrene microtitre plate wells as described by Lu et al. (1994) with minor modifications. Briefly, plate wells were coated overnight at 4° C. with 100 μl 15 μg/ml purified vWF and 15 μg/ml BSA. After three washes with PBS unbound sites were saturated with 200 μl of 2 mg/ml BSA for 2 h at RT. After three washings with PBS, wells were incubated with 90 μl platelet suspension (2.0×10^8/ml) previously treated with 40 μM FC. Where indicated, wells were preloaded with 50 μM ADP. After 1 h incubation at RT, non-adherent platelets were removed by 7 washings with a buffer 10 mM Hepes containing 145 mM NaCl, 5 mM KCl, 1 mM MgCl2, 2 mM CaCl2, 10 mM glucose, 3.5 mg/ml BSA, pH 7.35. The number of vWF-bound platelet was calculated by measurement of endogenous acid phosphatase using 130 μl/well of developing buffer (10 mM p-nitrophenyl phosphate, 0.1% Triton X-100, 50 mM sodium citrate, pH 5.5). After 1 h at 37° C. incubation, the reaction was stopped by the addition of 10 μl of 1 M NaOH/well and the plates were read at 405 nm on an automated plate reader. […]

14-3-3 proteins / GPIbα = target: T2, 14-3-3 proteins / GPIbα (UniProt P07359+P49106); assay: Overlay assay of 32P-14-3-3 on blotted platelet proteins; assay type: binding, human; settings: 10 μM FC; autoradiography
T2 construct: GST (pGEX-2TK, with protein kinase A site at the junction, 32P-labelled) (N); made in house; host or cells: E. coli (14-3-3 probe); GPIbα endogenous, from boiled human platelet suspension
T2 sequence (P07359 17-652, one chain of several): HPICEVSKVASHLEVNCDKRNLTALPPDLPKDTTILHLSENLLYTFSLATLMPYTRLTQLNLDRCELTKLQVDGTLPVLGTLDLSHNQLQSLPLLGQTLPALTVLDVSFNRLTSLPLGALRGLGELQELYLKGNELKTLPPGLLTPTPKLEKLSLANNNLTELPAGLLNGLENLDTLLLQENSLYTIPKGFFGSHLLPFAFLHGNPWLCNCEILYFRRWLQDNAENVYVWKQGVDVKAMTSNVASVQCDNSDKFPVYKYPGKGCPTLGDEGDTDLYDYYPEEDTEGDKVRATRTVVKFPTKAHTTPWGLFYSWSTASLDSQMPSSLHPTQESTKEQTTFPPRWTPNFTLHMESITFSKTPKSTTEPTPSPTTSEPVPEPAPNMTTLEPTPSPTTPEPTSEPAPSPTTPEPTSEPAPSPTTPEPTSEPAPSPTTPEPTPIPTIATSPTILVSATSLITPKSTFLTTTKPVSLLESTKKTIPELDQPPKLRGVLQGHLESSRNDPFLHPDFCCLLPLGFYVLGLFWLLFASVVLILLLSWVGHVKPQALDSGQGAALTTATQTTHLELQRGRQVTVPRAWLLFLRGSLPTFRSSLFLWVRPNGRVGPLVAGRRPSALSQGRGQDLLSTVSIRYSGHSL
Method: A: SDS-PAGE profile of platelet proteins. B: immunodecoration of GPIbα with anti-GPIbα ([…]) antidoby. C: overlay assay. Maize plasma membrane proteins (lanes 1, positive control) or platelet proteins (lanes 2) were separated by SDS-PAGE, blotted onto nitrocellulose membrane, incubated with ^32P-14-3-3 in the absence (−FC) or in the presence (+FC) of 10 μM FC and subjected to autoradiography as described in the Materials and Methods.
SDS-PAGE was performed as described by Laemmli (1970), in a Mini Protean apparatus (Bio-Rad). The overlay assay was carried out according to Fullone et al. (1998), with minor modifications. The GST-fused 14-3-3 was labelled with [γ^32P]-ATP on cAMP-dependent protein kinase phosphorylation site present at junction between GST and the cloned protein, ^32P-labelled GF14-6 was used as probe in the overlay experiments. 30 μl of platelet suspension (2.0×10^8/mi) was boiled in Laemmli loading buffer, separated on SDS-PAGE and blotted on nitrocellulose membrane by semidry electroblotting. 20 μg of maize plasma membrane proteins were used as positive control. […] Nitrocellulose membrane was extensively washed with buffer HT and radioactivity detected by autoradiography. […]

[3] = system: platelet aggregation (PRP); assay: Platelet aggregation in PRP (turbidometric aggregometer); assay type: cell-based, human; settings: for Platelet agglutination/aggregation induced: different FC concentrations, ristocetin 1 mg/ml
Method: Aggregation was studied with PRP using a turbidometric aggregometer as described in the Materials and Methods. A: effect of different concentrations of FC and ristocetin 1.0 mg/ml. B: effect of 40 μM FC in the presence of the aggregation antagonist RGDS peptide. C: effect of 40 μM FC in the presence of the cell-permeable 14-3-3 competitor MPAC peptide.
Washed platelets were prepared from platelet-rich plasma (PRP) obtained from healthy donors who had not taken medication for at least 9 days before bleeding. Preparation of PRP was performed as described by Dai et al. (2005).
PRPs were preincubated at 37° C. with different FC concentrations and, when indicated 0.1 mM MPaC or 0.75 mM RGDS. Aggregation was measured using a turbidometric platelet aggregometer Chrono-log 560 CA (Chrono-log Corporation, Pa., USA). 500 μl PRP were placed in a cuvette at 37° C. under continuous stirring at 1000 rpm. Aggregation was expressed as percentage of change in light transmission, with the value for the blank sample (PPP, Platelet-Poor Plasma) set at 100% and 0% for PRP.
To determine whether the FC-promoted binding of platelets to vWF results in platelet aggregation, the effect of FC on platelet functionality was assayed using an optical aggregometer. […] To determine whether the FC effect involves 14-3-3 proteins, the MPAC peptide was tested in FC-induced platelet agglutination.

[4] = target: T3, 14-3-3 proteins / bL15Vp peptide (last 15 amino acids of the H+-ATPase) (Zea mays, UniProt P49106); assay: Binding of 32P-labelled 14-3-3 (GF14-6) to resin-bound bL15Vp phosphopeptide; settings: 10 μM FC; resin-bound radioactivity
T3 construct: GST (pGEX-2TK, with protein kinase A site at the junction, 32P-labelled) (N); made in house; host or cells: E. coli (14-3-3); peptide synthesized by Neosystem
T3 sequence (P49106 1-261): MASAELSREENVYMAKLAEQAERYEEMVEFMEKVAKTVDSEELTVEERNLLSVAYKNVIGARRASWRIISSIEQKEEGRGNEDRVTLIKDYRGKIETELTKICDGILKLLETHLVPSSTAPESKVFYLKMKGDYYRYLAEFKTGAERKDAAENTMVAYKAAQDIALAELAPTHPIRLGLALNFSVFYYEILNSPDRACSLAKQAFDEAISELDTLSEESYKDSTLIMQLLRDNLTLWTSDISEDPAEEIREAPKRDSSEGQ
Method: as §1, §2, §3, §4

Compound	Effect of FC on 14-3-3 binding to immobilized bD15Lp peptide [1]	Specific [3H]FC binding to platelets (isolated human platelets)	Number of platelets adherent to vWF ([2]; in the presence of 50 μM platelet agonist ADP (+ADP))	Number of platelets adherent to vWF ([2]; resting platelets (−ADP))	Effect of FC on the interaction between 14-3-3 proteins and GPIbα (135 kDa band) (14-3-3 proteins / GPIbα)	FC concentration giving maximum agglutination ([3]; PRP, 37° C.) [µM]	Platelet agglutination/aggregation induced ([3]; PRP, 37° C.)	Effect of FC on 14-3-3 binding to immobilized bL15Vp peptide [4]	Inhibition of FC-induced platelet aggregation ([3]; 40 μM FC, 0.1 mM MPαC or 0.75 mM RGDS)
C=CC(C)(C)OC[C@H]1O[C@H](O[C@@H]2C3=C([C@H](C)COC(C)=O)C[C@H](O)[C@]3(C)/C=C3/[C@@H](COC)CC[C@H]3[C@@H](C)[C@H]2O)[C@H](O)[C@@H](OC(C)=O)[C@@H]1O [FC, fusicoccin]	in the presence of the toxin binding is generated	platelets possess specific FC binding activity	significantly increased	significantly increased	the interaction is increased	40	slight but reproducible agglutination in a dose-dependent manner	strongly stimulated	–
C13H27CONH-Ser-lle-Arg-Tyr-Ser-Gly-His-pSer-Leu (Myristoyl-SIRYSGH[pS′]L) [MPαC, reference compound]	–	–	–	–	–	–	–	–	completely inhibits FC effect
ristocetin [reference compound]	–	–	–	–	–	–	rapid platelet agglutination	–	–
